Consider 20 compounds from patent publication US20060089378A1 (priority 2004, published 2006).

Structures are written as SMILES. Read-outs that look alike come from different tables or passages of the source.

One assay concerns the target T1, Cannabinoid CB1 Receptor (Homo sapiens, UniProt P21554).
T1 construct: expressed in transfected cells
The assay is described as follows: Binding assay for CB1 agonists or inverse agonists (radioligand competition, membranes of transfected SK-N-MC cells). (Displacement assays read how much labelled ligand stays bound in the presence of the test substance.)

Another assay concerns the target CB1 receptor (human) (Homo sapiens, UniProt P21554). Briefly: cell-based.
The target in another assay is T2, Cannabinoid CB2 Receptor (Homo sapiens, UniProt P34972).
T2 construct: expressed in transfected cells
The assay is described as follows: Binding assay for CB2 agonists or inverse agonists (radioligand competition, membranes of transfected SK-N-MC cells). To be noted: for inhibition at 0.2 µM: read-out: Cannabinoid CB2 Receptor Binding percent inhibition.

The mark [1] stands for this setting: test concentration of 0.2 μM, compounds without an IC50 binding value.

T1 sequence (P21554 whole entry): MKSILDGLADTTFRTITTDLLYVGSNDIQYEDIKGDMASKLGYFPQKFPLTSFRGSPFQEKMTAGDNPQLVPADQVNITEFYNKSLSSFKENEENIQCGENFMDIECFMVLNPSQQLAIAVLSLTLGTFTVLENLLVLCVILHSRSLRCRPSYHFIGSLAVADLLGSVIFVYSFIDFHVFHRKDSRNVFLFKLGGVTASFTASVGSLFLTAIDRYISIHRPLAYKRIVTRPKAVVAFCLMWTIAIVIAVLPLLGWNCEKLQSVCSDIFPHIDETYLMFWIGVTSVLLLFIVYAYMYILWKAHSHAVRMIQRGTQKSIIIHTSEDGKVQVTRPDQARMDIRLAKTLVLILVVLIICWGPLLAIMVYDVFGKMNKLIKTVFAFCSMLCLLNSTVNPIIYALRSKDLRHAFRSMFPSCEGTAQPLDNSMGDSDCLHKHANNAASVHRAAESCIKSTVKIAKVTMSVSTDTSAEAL
Sequence of CB1 receptor (human) (P21554 whole entry): as above
T2 sequence (P34972 whole entry): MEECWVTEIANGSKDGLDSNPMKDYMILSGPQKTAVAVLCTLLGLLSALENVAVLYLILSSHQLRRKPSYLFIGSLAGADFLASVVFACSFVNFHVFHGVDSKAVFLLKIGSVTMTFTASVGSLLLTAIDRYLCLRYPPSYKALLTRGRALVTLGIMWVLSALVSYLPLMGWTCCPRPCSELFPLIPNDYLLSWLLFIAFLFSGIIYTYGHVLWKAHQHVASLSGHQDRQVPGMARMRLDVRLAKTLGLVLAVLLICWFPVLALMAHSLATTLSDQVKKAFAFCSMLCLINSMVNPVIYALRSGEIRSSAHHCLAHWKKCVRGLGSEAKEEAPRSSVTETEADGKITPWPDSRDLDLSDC

For `CC(NC(=O)c1nn(-c2ccc(Cl)cc2Cl)c2c1CN(S(C)(=O)=O)C/C2=C\c1ccc(F)cc1)c1ccccn1` (stereo not drawn) [Cpd 27, (7E)-1-(2,4-dichloro-phenyl)-7-(4-fluoro-benzylidene)-5-methanesulfonyl-4,5,6,7-tetrahydro-1H-pyrazolo[4,3-c]pyridine-3-carboxylic acid (1-pyridin-2-yl-ethyl)-amide], the IC50 (in general, the concentration that inhibits the measured activity by half) at Cannabinoid CB1 Receptor amounted to 5 nM. Also, the concentration for a half-maximal effect (EC50) (usually the concentration at which the effect is half-maximal) on CB1 receptor (human) came out at 6 nM. For the same compound, on Cannabinoid CB2 Receptor, the inhibition (commonly how much of the control response was suppressed) at 0.2 µM worked out at 16%.

`C[C@@H](NC(=O)c1nn(-c2ccc(Cl)cc2)c2c1CNC/C2=C\c1ccc(F)cc1)c1ccccc1` [Cpd 66, (7E)-1-(4-chloro-phenyl)-7-(4-fluoro-benzylidene)-4,5,6,7-tetrahydro-1H-pyrazolo[4,3-c]pyridine-3-carboxylic acid [(1R)-1-phenyl-ethyl]-amide] returned an IC50 at Cannabinoid CB1 Receptor of 20 nM. For the same compound, the EC50 on CB1 receptor (human) is 10 nM. In addition, the inhibition at 0.2 µM at Cannabinoid CB2 Receptor (setting [1]) is 5%.

At Cannabinoid CB1 Receptor, `COC(=O)N1C/C(=C\c2ccc(OC)cc2)c2c(c(C(=O)NN3CC4CCCC4C3)nn2-c2ccc(Cl)cc2Cl)C1` (stereo not drawn) [Cpd 100, (7E)-1-(2,4-dichloro-phenyl)-3-(hexahydro-cyclopenta[c]pyrrol-2-ylcarbamoyl)-7-(4-methoxy-benzylidene)-1,4,6,7-tetrahydro-pyrazolo[4,3-c]pyridine-5-carboxylic acid methyl ester] had an IC50 of 7 nM. For the same compound, a half-maximal effect at CB1 receptor (human) (EC50) was put at 1 nM. Moreover, at Cannabinoid CB2 Receptor, the inhibition at 0.2 µM worked out at 63%.

`COc1ccc(/C=C2\CN(C(C)=O)Cc3c(C(=O)NN4CCCCC4)nn(-c4ccc(Cl)cc4Cl)c32)cc1` [Cpd 54, (7E)-5-acetyl-1-(2,4-dichloro-phenyl)-7-(4-methoxy-benzylidene)-4,5,6,7-tetrahydro-1H-pyrazolo[4,3-c]pyridine-3-carboxylic acid piperidin-1-ylamide] showed an IC50 on Cannabinoid CB1 Receptor of 40 nM. For the same compound, a half-maximal effect on CB1 receptor (human) (EC50) was put at 5 nM. The inhibition at 0.2 µM on Cannabinoid CB2 Receptor is 24%.

Compound `CCNC(=O)N1C/C(=C\c2ccc(OC)cc2)c2c(c(C(=O)NN3CCCCC3)nn2-c2ccc(Cl)cc2Cl)C1` [Cpd 56, (7E)-1-(2,4-dichloro-phenyl)-7-(4-methoxy-benzylidene)-1,4,6,7-tetrahydro-pyrazolo[4,3-c]pyridine-3,5-dicarboxylic acid 5-ethylamide 3-piperidin-1-ylamide] yielded an IC50 on Cannabinoid CB1 Receptor of 20 nM. Also, the EC50 on CB1 receptor (human) turned out to be 7 nM. Besides, on Cannabinoid CB2 Receptor, the inhibition at 0.2 µM stood at 28%.

With `COc1ccc(/C=C2\CN(C(C)=O)Cc3c(C(=O)NC(C)c4ccccn4)nn(-c4ccc(Cl)cc4Cl)c32)cc1` (stereo not drawn) [Cpd 60, (7E)-5-acetyl-1-(2,4-dichloro-phenyl)-7-(4-methoxy-benzylidene)-4,5,6,7-tetrahydro-1H-pyrazolo[4,3-c]pyridine-3-carboxylic acid (1-pyridin-2-yl-ethyl)-amide], the IC50 at Cannabinoid CB1 Receptor amounted to 20 nM. This compound also returned an EC50 at CB1 receptor (human) of 7 nM. The inhibition at 0.2 µM on Cannabinoid CB2 Receptor (setting [1]) is 28%.

In the case of `CC(=O)N1C/C(=C\c2ccc(F)cc2)c2c(c(C(=O)NC(C)c3ccccn3)nn2-c2ccc(Cl)cc2Cl)C1` (stereo not drawn) [Cpd 22, (7E)-5-acetyl-1-(2,4-dichloro-phenyl)-7-(4-fluoro-benzylidene)-4,5,6,7-tetrahydro-1H-pyrazolo[4,3-c]pyridine-3-carboxylic acid (1-pyridin-2-yl-ethyl)-amide], the IC50 on Cannabinoid CB1 Receptor worked out at 30 nM. At CB1 receptor (human), the EC50 was 4 nM. Besides, on Cannabinoid CB2 Receptor, the inhibition at 0.2 µM came to 2%.

For `COC(=O)N1C/C(=C\c2ccc(F)cc2)c2c(c(C(=O)NN3CC4CCCC4C3)nn2-c2ccc(Cl)cc2)C1` (stereo not drawn) [Cpd 87, (7E)-1-(4-chloro-phenyl)-7-(4-fluoro-benzylidene)-3-(hexahydro-cyclopenta[c]pyrrol-2-ylcarbamoyl)-1,4,6,7-tetrahydro-pyrazolo[4,3-c]pyridine-5-carboxylic acid methyl ester], the IC50 at Cannabinoid CB1 Receptor is 50 nM. Besides, the EC50 at CB1 receptor (human) came to 1 nM. For the same compound, the inhibition at 0.2 µM on Cannabinoid CB2 Receptor turned out to be 16%.

Regarding `CCC(=O)N1CCc2c(c(C(=O)NC3C4(C)CCC(C4)C3(C)C)nn2C2CCCCC2)C1` (stereo not drawn) [Cpd 122, 1-cyclohexyl-5-propionyl-4,5,6,7-tetrahydro-1H-pyrazolo[4,3-c]pyridine-3-carboxylic acid (1,3,3-trimethyl-bicyclo[2.2.1]hept-2-yl)-amide], the IC50 on Cannabinoid CB1 Receptor is 600 nM; at Cannabinoid CB2 Receptor it was 10 nM. Further, the response on CB1 receptor (human) was half-maximal at 900 nM (EC50).

On Cannabinoid CB1 Receptor, `C[C@@H](NC(=O)c1nn(-c2ccc(Cl)cc2)c2c1CN(C(=O)OC(C)(C)C)C/C2=C\c1ccc(F)cc1)c1ccccc1` [Cpd 57, (7E)-1-(4-chloro-phenyl)-7-(4-fluoro-benzylidene)-3-[(1R)-1-phenyl-ethylcarbamoyl]-1,4,6,7-tetrahydro-pyrazolo[4,3-c]pyridine-5-carboxylic acid tert-butyl ester] had an IC50 of 30 nM. Besides, the EC50 on CB1 receptor (human) was found to be 20 nM. Further, the inhibition at 0.2 µM at Cannabinoid CB2 Receptor (setting [1]) was determined as 13%.

On Cannabinoid CB1 Receptor, `C[C@@H](NC(=O)c1nn(-c2ccc(Cl)cc2Cl)c2c1CN(C=O)C/C2=C\c1ccc(F)cc1)c1ccccc1` [Cpd 46, (7E)-1-(2,4-dichloro-phenyl)-7-(4-fluoro-benzylidene)-5-formyl-4,5,6,7-tetrahydro-1H-pyrazolo[4,3-c]pyridine-3-carboxylic acid [(1R)-1-phenyl-ethyl]-amide] displayed a 50% inhibitory concentration (IC50) of 6 nM. In addition, the midpoint of the response at CB1 receptor (human), the EC50, lay at 0.1 nM. At Cannabinoid CB2 Receptor, the inhibition at 0.2 µM was determined as 18%.

Consider `C[C@@H](NC(=O)c1nn(-c2ccc(Cl)cc2Cl)c2c1CNC/C2=C\c1ccc(F)cc1)c1ccccn1` [Cpd 139, (7E)-1-(2,4-dichloro-phenyl)-7-(4-fluoro-benzylidene)-4,5,6,7-tetrahydro-1H-pyrazolo[4,3-c]pyridine-3-carboxylic acid [(1R)-1-pyridin-2-yl-ethyl]-amide], for which the IC50 on Cannabinoid CB1 Receptor was 40 nM. Besides, at CB1 receptor (human), the EC50 is 30 nM. The inhibition at 0.2 µM on Cannabinoid CB2 Receptor was found to be 16%.

For the compound `CC(C)(C)OC(=O)N1C/C(=C\c2ccc(F)cc2)c2c(c(C(=O)NN3CCCCC3)nn2-c2ccc(Cl)cc2Cl)C1` [Cpd 9, (7E)-1-(2,4-dichloro-phenyl)-7-(4-fluoro-benzylidene)-3-(piperidin-1-ylcarbamoyl)-1,4,6,7-tetrahydro-pyrazolo[4,3-c]pyridine-5-carboxylic acid tert-butyl ester], the inhibition at 0.2 µM at Cannabinoid CB1 Receptor (read-out: Cannabinoid CB1 Receptor Binding percent inhibition) is 55%; at Cannabinoid CB2 Receptor, 8%. Moreover, the EC50 on CB1 receptor (human) was 20 nM.

For `COC(=O)N1C/C(=C\c2ccc(F)cc2)c2c(c(C(=O)NC(C)c3ccccn3)nn2-c2ccc(Cl)cc2Cl)C1` (stereo not drawn) [Cpd 23, (7E)-1-(2,4-dichloro-phenyl)-7-(4-fluoro-benzylidene)-3-(1-pyridin-2-yl-ethylcarbamoyl)-1,4,6,7-tetrahydro-pyrazolo[4,3-c]pyridine-5-carboxylic acid methyl ester], the half-inhibitory concentration (IC50) at Cannabinoid CB1 Receptor was 10 nM. This compound also yielded an EC50 on CB1 receptor (human) of 4 nM. Further, the inhibition at 0.2 µM at Cannabinoid CB2 Receptor turned out to be 18%.

On to `COc1ccc(/C=C2\CN(S(C)(=O)=O)Cc3c(C(=O)N[C@H](C)c4ccccc4)nn(-c4ccc(Cl)cc4Cl)c32)cc1` [Cpd 40, (7E)-1-(2,4-dichloro-phenyl)-5-methanesulfonyl-7-(4-methoxy-benzylidene)-4,5,6,7-tetrahydro-1H-pyrazolo[4,3-c]pyridine-3-carboxylic acid [(1R)-1-phenyl-ethyl]-amide], for which the concentration for half-maximal inhibition (IC50) on Cannabinoid CB1 Receptor turned out to be 2 nM. Also, on CB1 receptor (human), the EC50 was 1 nM. The inhibition at 0.2 µM at Cannabinoid CB2 Receptor is 47%.

For `Cc1ccc(S(=O)(=O)N2C/C(=C\c3ccc(F)cc3)c3c(c(C(=O)NC(C)c4ccccn4)nn3-c3ccc(Cl)cc3Cl)C2)cc1` (stereo not drawn) [Cpd 26, (7E)-1-(2,4-dichloro-phenyl)-7-(4-fluoro-benzylidene)-5-(toluene-4-sulfonyl)-4,5,6,7-tetrahydro-1H-pyrazolo[4,3-c]pyridine-3-carboxylic acid (1-pyridin-2-yl-ethyl)-amide], the concentration for half-maximal inhibition (IC50) at Cannabinoid CB1 Receptor was 30 nM. Further, the 50% effective concentration (EC50) at CB1 receptor (human) stood at 20 nM. Moreover, the inhibition at 0.2 µM on Cannabinoid CB2 Receptor stood at 24%.

`CCNC(=O)N1C/C(=C\c2ccc(F)cc2)c2c(c(C(=O)N[C@H](C)c3ccccc3)nn2-c2ccc(Cl)cc2)C1` [Cpd 69, (7E)-1-(4-chloro-phenyl)-7-(4-fluoro-benzylidene)-1,4,6,7-tetrahydro-pyrazolo[4,3-c]pyridine-3,5-dicarboxylic acid 5-ethylamide 3-{[(1R)-1-phenyl-ethyl]-amide}]: the IC50 at Cannabinoid CB1 Receptor was found to be 30 nM. The EC50 at CB1 receptor (human) is 5 nM. On Cannabinoid CB2 Receptor, the inhibition at 0.2 µM amounted to 0%.

`CCOC(=O)CN1C/C(=C\c2ccc(OC)cc2)c2c(c(C(=O)NN3CCCCC3)nn2-c2ccc(Cl)cc2Cl)C1` [Cpd 59, (7E)-[1-(2,4-dichloro-phenyl)-7-(4-methoxy-benzylidene)-3-(piperidin-1-ylcarbamoyl)-1,4,6,7-tetrahydro-pyrazolo[4,3-c]pyridin-5-yl]-acetic acid ethyl ester] registered an IC50 at Cannabinoid CB1 Receptor of 40 nM. In addition, the EC50 on CB1 receptor (human) stood at 30 nM. In addition, the inhibition at 0.2 µM at Cannabinoid CB2 Receptor amounted to 23%.

On to `COC(=O)N1CCc2c(c(C(=O)NC3C4CC5CC(C4)CC3C5)nn2C2CCCCC2)C1` (stereo not drawn) [Cpd 131, 3-(adamantan-2-ylcarbamoyl)-1-cyclohexyl-1,4,6,7-tetrahydro-pyrazolo[4,3-c]pyridine-5-carboxylic acid methyl ester], for which the IC50 on Cannabinoid CB1 Receptor (human CB1, SK-N-MC cell membranes, calculated by linear regression from percent inhibition at various concentrations, read-out: Cannabinoid CB1 Receptor Binding IC50) is 2700 nM; on Cannabinoid CB2 Receptor (human CB2, SK-N-MC cell membranes, calculated by linear regression from percent inhibition at various concentrations, read-out: Cannabinoid CB2 Receptor Binding IC50), 200 nM. In addition, at CB1 receptor (human) (one compound concentration, β-galactosidase activity relative to vehicle treated cells), the “CB1 Receptor Functional Activity (change in functional activity, CRE β-gal)” value is listed as −49%.

`CC(NC(=O)c1nn(-c2ccc(Cl)cc2Cl)c2c1CNC/C2=C\c1ccc(F)cc1)c1ccccn1` (stereo not drawn) [Cpd 21, (7E)-1-(2,4-dichloro-phenyl)-7-(4-fluoro-benzylidene)-4,5,6,7-tetrahydro-1H-pyrazolo[4,3-c]pyridine-3-carboxylic acid (1-pyridin-2-yl-ethyl)-amide] gave an IC50 on Cannabinoid CB1 Receptor of 50 nM. In addition, on CB1 receptor (human), the midpoint of the response, the EC50, lay at 70 nM. Besides, the inhibition at 0.2 µM at Cannabinoid CB2 Receptor is 5%.
